# From ChEMBL document CHEMBL5506010, “Butyrylcholinesterase-Activated Near-Infrared Fluorogenic Probe for In Vivo Theranostics of Alzheimer's Disease” (J Med Chem, 2024)
# Calls of active or inactive are those of the source. No cut-off for these calls is given here.
# Experiments:
# Cholinesterase [1] = target: Cholinesterase (Equus caballus, UniProt P81908); assay: Stability of compound assessed as horse serum BChE-mediated compound hydrolysis by fluorescence based analysis; format: ADME
# Acetylcholinesterase [2] = target: T1, Acetylcholinesterase (Homo sapiens, UniProt P22303); assay: Stability of compound assessed as human serum AChE-mediated compound hydrolysis by fluorescence based analysis; format: ADME
# [3] = Neurotoxicity in mouse HT-22 cells assessed as reduction in cell viability at 50 uM; format: toxicity, cell-based; details: ht-22, 50 µM
# Cholinesterase [4] = target: T2, Cholinesterase (Homo sapiens, UniProt P06276); assay: Inhibition of human BChE using butyrylthiocholineiodide as substrate preincubated for 5 mins followed by substrate addition and measured immediately by Ellmans method
# Cholinesterase [5] = target: T2, Cholinesterase; assay: Stability of compound assessed as BChE(unknown origin)-mediated compound hydrolysis at 10 uM by fluorescence based analysis; format: ADME
# Cholinesterase [6] = target: T2, Cholinesterase; assay: Binding affinity to BChE in human SH-SY5Y cells at 10 uM incubated for 1 hrs by fluorescence based confocal laser scanning microscopic analysis; format: cell-based
# Cholinesterase [7] = target: T2, Cholinesterase; assay: Binding affinity to BChE in human LN-229 cells at 10 uM incubated for 1 hrs by fluorescence based confocal laser scanning microscopic analysis; format: cell-based
# [8] = target: Cholinesterase (Mus musculus) (UniProt Q03311); assay: Binding affinity to BChE in mouse HT-22 cells at 10 uM incubated for 1 hrs by fluorescence based confocal laser scanning microscopic analysis; format: cell-based
# PC-12 [9] = assay: Binding affinity to BChE in rat PC-12 cells at 10 uM incubated for 1 hrs by fluorescence based confocal laser scanning microscopic analysis; format: cell-based
# PC-12 [10] = assay: Binding affinity to BChE in rat PC-12 cells assessed as increase in fluorescence intensity incubated for 1 hrs by fluorescence based confocal laser scanning microscopic analysis; format: cell-based; details: dose 1-10 µM
# PC-12 [11] = assay: Binding affinity to BChE in rat PC-12 cells assessed as increase in fluorescence intensity at 10 uM incubated for 24 hrs by fluorescence based confocal laser scanning microscopic analysis; format: cell-based
# [12] = Drug uptake in HEK293T cells transfected with BChE siRNA assessed as increase in fluorescence intensity by fluorescence based confocal laser scanning microscopic analysis; format: ADME, cell-based; details: human, hek-293t
# SH-SY5Y [13] = assay: Neuroprotective activity against amyloid-beta (1 to 42)-induced cell death in human SH-SY5Y cells assessed as increase in cell survival at 10 to 50 uM preincubated with compound for 2 hrs followed by amyloid beta (1 to 42) addition and measured after 24 hrs by MTT assay; format: functional, cell-based; details: dose 10-50 µM, time 26.0 hrs
# SH-SY5Y [14] = assay: Neuroprotective activity against amyloid-beta (1 to 42)-induced human SH-SY5Y cells assessed as increase in ACh level in culture medium at 10 to 20 uM incubated for 24 hrs by ELISA; format: functional, cell-based; details: dose 10-20 µM
# SH-SY5Y [15] = assay: Neuroprotective activity against amyloid-beta (1 to 42)-induced human SH-SY5Y cells assessed as increase in ACh level in cell lysate at 10 to 20 uM incubated for 24 hrs by ELISA; format: functional, cell-based; details: dose 10-20 µM
# SH-SY5Y [16] = assay: Neuroprotective activity against amyloid-beta (1 to 42)-induced human SH-SY5Y cells assessed as decrease in amyloid beta (1 to 42) level in culture medium at 10 to 20 uM incubated for 24 hrs by ELISA; format: functional, cell-based; details: dose 10-20 µM
# SH-SY5Y [17] = assay: Neuroprotective activity against amyloid-beta (1 to 42)-induced human SH-SY5Y cells assessed as decrease in amyloid beta (1 to 42) level in cell lysate at 10 to 20 uM incubated for 24 hrs by ELISA; format: functional, cell-based; details: dose 10-20 µM
# [18] = Permeability of compound incubated for 18 hrs by PAMPA-BBB based UV plate spectroscopic reader analysis; format: ADME; details: read-out: permeability
# [19] = Stability of compound in male ICR mouse brain at 100 uM, iv measured after 30 to 1440 mins by fluorescence microplate reader; format: ADME, organism-based; details: time 30-1440 min
# [20] = Stability of compound at pH 12 measured within 3 mins by microplate reader analysis; format: physicochemical; details: buffer, pH 12, 0.05 h
# [21] = Stability of compound in male ICR mouse brain at 100 uM, iv measured within 5 mins by fluorescence microplate reader; format: ADME, organism-based
# [22] = Stability of compound in male ICR mouse plasma at 100 uM, iv measured after 30 mins by fluorescence microplate reader; format: ADME, organism-based; details: 0.5 h
# [23] = Drug accumulation in brain of APP/PS1 transgenic AD-mouse model at 100 uM, iv measured at 5 to 60 mins by fluorescence imaging analysis; format: ADME, organism-based; details: in vivo, time 5-60 min
# [24] = Drug accumulation in brain of APP/PS1 transgenic AD-mouse model at 100 uM, iv measured after 24 hrs […] by fluorescence imaging analysis; format: ADME, organism-based; details: in vivo
# Mus musculus [25] = assay: Antialzheimer activity in APP/PS1 transgenic AD mouse model assessed as improvement in learning administered intravenously once every 2 days for 10 times followed by morris water maze training from day 21 to 25 and measured on day 26 by Morris water maze test; format: functional, organism-based; details: route iv, time 26.0 day
# Mus musculus [26] = assay: Antialzheimer activity in APP/PS1 transgenic AD mouse model assessed as improvement in memory administered intravenously once every 2 days for 10 times followed by morris water maze training from day 21 to 25 and measured on day 26 by Morris water maze test; format: functional, organism-based; details: route iv, time 26.0 day
# Mus musculus [27] = assay: Antialzheimer activity in APP/PS1 transgenic AD mouse model assessed as improvement in learning administered intravenously once every 2 days for 10 times and measured on day 26 by Y maze test; format: functional, organism-based; details: route iv, time 26.0 day
# Mus musculus [28] = assay: Antialzheimer activity in APP/PS1 transgenic AD mouse model assessed as improvement in NC scores administered intravenously once every 2 days for 10 times and measured on day 27 by Nest construction test; format: functional, organism-based; details: route iv, time 27.0 day
# [29] = Toxicity in APP/PS1 transgenic AD mouse model assessed as effect on body weight administered intravenously once every 2 days for 10 times and measured on day 30; details: in vivo, iv, 720 h, time 30 day
# Mus musculus [30] = assay: Antialzheimer activity in APP/PS1 transgenic AD mouse model assessed as increase in ACh level administered intravenously once every 2 days for 10 times and measured on day 30 by ELISA; format: functional, organism-based; details: route iv, time 30.0 day
# Mus musculus [31] = assay: Antialzheimer activity in APP/PS1 transgenic AD mouse model assessed as decrease in amyloid beta (1 to 42) level administered intravenously once every 2 days for 10 times and measured on day 30 by ELISA; format: functional, organism-based; details: route iv, time 30.0 day
# Cholinesterase [32] = target: T2, Cholinesterase; assay: Binding affinity to BChE (unknown origin) in PBS assessed as red-shift in maximum absorption to 680 nm by UV/vis absorption analysis
# Cholinesterase [33] = target: T2, Cholinesterase; assay: Binding affinity to BChE (unknown origin) in PBS assessed as […] at 680 nm by UV/vis absorption analysis
# Cholinesterase [34] = target: T2, Cholinesterase; assay: Binding affinity to BChE (unknown origin) in PBS assessed as cyan coloured appearance of compound by UV/vis absorption analysis
# Cholinesterase [35] = target: T2, Cholinesterase; assay: Binding affinity to BChE (unknown origin) in PBS assessed as maximum emission wavelength at 710 nm by fluorescence spectra analysis
# Cholinesterase [36] = target: T2, Cholinesterase; assay: Binding affinity to BChE (unknown origin) in PBS assessed as fold change in fluorescence intensity at 710 nm by fluorescence spectra analysis
# [37] = Selectivity ratio of fluorescence intensity for binding affinity to AChE (unknown origin) in PBS to fluorescence intensity for binding affinity to BChE (unknown origin) in PBS
# Homo sapiens [38] = organism: Homo sapiens; assay: Binding affinity to ALP (unknown origin) by fluorescence analysis
# Homo sapiens [39] = organism: Homo sapiens; assay: Binding affinity to carboxylesterase (unknown origin) by fluorescence analysis
# Homo sapiens [40] = organism: Homo sapiens; assay: Binding affinity to lysozyme (unknown origin) by fluorescence analysis
# Acetylcholinesterase [41] = target: T1, Acetylcholinesterase; assay: Binding affinity to AChE (unknown origin) by fluorescence analysis
# Cholinesterase [42] = target: T2, Cholinesterase; assay: Binding affinity to BChE (unknown origin) assessed as enzyme mediated compound hydrolysis measured after 1 min by HPLC analysis relative to control; parameters: scale not given: the % may be the effect or the level left
# Cholinesterase [43] = target: T2, Cholinesterase; assay: Binding affinity to BChE (unknown origin) assessed as enzyme mediated compound hydrolysis measured after 5 min by HPLC analysis relative to control; parameters: scale not given: the % may be the effect or the level left
# Cholinesterase [44] = target: T2, Cholinesterase; assay: Binding affinity to BChE (unknown origin) in PBS assessed as maximum initial reaction rate by fluorometric method
# Cholinesterase [45] = target: T2, Cholinesterase; assay: Binding affinity to BChE (unknown origin) in PBS assessed as Michaelis-menten constant by fluorometric method
# T2 sequence (P06276 whole entry): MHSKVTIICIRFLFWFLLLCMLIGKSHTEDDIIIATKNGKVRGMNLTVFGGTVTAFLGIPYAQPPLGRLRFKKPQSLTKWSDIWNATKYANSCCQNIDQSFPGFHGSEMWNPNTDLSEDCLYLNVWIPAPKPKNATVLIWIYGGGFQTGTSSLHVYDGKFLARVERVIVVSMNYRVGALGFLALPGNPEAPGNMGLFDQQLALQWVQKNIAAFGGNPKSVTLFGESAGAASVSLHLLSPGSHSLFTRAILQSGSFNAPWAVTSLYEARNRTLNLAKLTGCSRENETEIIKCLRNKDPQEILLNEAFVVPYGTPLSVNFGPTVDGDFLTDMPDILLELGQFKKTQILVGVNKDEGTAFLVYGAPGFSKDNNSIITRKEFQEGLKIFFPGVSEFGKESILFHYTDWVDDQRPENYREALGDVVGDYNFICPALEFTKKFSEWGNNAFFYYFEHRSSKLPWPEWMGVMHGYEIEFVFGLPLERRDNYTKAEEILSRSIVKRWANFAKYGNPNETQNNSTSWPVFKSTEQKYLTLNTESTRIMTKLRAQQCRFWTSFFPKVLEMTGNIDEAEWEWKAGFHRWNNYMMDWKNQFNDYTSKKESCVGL
# T1 sequence (P22303 whole entry): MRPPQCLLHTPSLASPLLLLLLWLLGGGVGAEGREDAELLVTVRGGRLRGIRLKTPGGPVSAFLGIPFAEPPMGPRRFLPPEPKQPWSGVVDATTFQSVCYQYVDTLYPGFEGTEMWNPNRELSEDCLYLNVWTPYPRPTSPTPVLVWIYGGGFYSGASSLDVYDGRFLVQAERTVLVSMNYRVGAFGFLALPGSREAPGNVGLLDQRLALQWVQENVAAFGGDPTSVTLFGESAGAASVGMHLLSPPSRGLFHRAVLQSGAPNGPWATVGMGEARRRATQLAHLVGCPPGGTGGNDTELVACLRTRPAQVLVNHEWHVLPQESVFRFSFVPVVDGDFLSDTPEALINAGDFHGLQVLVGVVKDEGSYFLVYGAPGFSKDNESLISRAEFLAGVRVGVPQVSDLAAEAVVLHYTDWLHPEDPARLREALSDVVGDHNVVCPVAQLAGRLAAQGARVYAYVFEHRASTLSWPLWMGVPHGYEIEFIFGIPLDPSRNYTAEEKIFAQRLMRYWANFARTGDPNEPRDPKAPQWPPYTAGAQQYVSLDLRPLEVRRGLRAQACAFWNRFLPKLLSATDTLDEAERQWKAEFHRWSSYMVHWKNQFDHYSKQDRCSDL
# Sequence of Cholinesterase (Mus musculus) (Q03311 whole entry): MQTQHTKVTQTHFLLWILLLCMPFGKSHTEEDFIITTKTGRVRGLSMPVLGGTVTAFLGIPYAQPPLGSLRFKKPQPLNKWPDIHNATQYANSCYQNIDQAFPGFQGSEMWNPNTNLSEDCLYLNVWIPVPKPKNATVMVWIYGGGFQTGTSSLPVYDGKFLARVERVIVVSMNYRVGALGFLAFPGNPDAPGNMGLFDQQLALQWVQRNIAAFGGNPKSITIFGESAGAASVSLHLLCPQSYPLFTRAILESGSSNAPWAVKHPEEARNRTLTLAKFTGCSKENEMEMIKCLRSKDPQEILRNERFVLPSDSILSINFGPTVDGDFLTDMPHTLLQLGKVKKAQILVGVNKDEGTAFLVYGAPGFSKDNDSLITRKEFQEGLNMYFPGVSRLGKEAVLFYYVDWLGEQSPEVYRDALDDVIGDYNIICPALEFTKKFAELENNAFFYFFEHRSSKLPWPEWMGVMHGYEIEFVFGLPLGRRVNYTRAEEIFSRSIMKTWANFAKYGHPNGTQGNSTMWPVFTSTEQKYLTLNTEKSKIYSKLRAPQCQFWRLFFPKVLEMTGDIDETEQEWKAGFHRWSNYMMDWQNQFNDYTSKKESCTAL
# Sequence of Cholinesterase (Equus caballus, UniProt P81908) (P81908 whole entry): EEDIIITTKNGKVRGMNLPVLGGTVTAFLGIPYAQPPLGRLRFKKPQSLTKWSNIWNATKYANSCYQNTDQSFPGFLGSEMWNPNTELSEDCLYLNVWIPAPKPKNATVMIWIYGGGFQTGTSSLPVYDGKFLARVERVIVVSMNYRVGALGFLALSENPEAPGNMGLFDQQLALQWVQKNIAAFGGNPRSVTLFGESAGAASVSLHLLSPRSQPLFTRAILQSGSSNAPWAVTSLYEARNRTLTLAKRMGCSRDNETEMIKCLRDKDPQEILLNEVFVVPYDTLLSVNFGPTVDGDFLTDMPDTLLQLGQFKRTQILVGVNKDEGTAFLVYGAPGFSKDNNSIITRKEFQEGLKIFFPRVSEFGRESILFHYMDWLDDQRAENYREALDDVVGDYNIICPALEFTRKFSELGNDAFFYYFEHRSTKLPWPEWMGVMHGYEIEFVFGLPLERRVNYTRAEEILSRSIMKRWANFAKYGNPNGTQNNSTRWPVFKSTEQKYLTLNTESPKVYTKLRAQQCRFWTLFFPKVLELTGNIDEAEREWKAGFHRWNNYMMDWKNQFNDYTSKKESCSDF
structure (smiles),measurement,setting,value
C#CCCC[N+]1=C(/C=C/C2=C3Oc4cc(OC(C)=O)ccc4C=C3CCC2)C(C)(C)c2ccccc21.[I-],Stability,Cholinesterase [1],Unstable
same,Stability,Acetylcholinesterase [2],Unstable
Nc1c2c(nc3ccccc13)CCCC2 [TACRINE],Activity,[3],Non-Toxic
CCN(CC)Cc1ccccc1CNC(=O)c1cccc(NC(=O)c2ccc(F)cc2)c1,Activity,[3],Non-Toxic
CCN(CC)Cc1ccccc1CNC(=O)c1cccc(NC(=O)c2cccc(C(=O)O)c2)c1,IC50,Cholinesterase [4],1.23 nM
C#CCCC[N+]1=C(/C=C/C2=C3Oc4cc(OC(=O)C5CC5)ccc4C=C3CCC2)C(C)(C)c2ccccc21.[I-],IC50,Cholinesterase [4],> 100000 nM
same,Stability,Cholinesterase [5],Stable
same,Activity,Cholinesterase [6],Active
same,Activity,Cholinesterase [7],Active
same,Activity,[8],Active
same,Activity,PC-12 [9],Active
same,Activity,PC-12 [10],Dose-Dependent Effect
same,Activity,PC-12 [11],Active
same,Drug uptake,[12],Not Active
same,Activity,[3],Toxic
same,Activity,SH-SY5Y [13],inactive
same,Activity,SH-SY5Y [14],inactive
same,Activity,SH-SY5Y [15],inactive
same,Activity,SH-SY5Y [16],inactive
same,Activity,SH-SY5Y [17],inactive
same,Papp at 18 h,[18],5.97 ×10⁻⁶ cm/s
same,Stability,[19],Unstable
same,Stability,[20],Unstable
same,Stability,[21],Stable
same,Stability,[22],Stable
same,Drug uptake,[23],Active
same,Drug uptake,[24],Not Active
same,Activity,Mus musculus [25],inactive
same,Activity,Mus musculus [26],inactive
same,Activity,Mus musculus [27],inactive
same,Activity,Mus musculus [28],inactive
same,Activity,[29],Non-Toxic
same,Activity,Mus musculus [30],inactive
same,Activity,Mus musculus [31],inactive
same,Activity,Cholinesterase [32],Active
same,Activity,Cholinesterase [33],Active
same,Activity,Cholinesterase [34],Active
same,Activity,Cholinesterase [35],Active
same,fold change (FC),Cholinesterase [36],21
same,Selectivity ratio,[37],31.4
same,Activity,Homo sapiens [38],inactive
same,Activity,Homo sapiens [39],inactive
same,Activity,Homo sapiens [40],inactive
same,Activity,Acetylcholinesterase [41],inactive
same,Activity,Cholinesterase [42],50%
same,Activity,Cholinesterase [43],> 90%
same,Activity,Cholinesterase [44],2.08 µM/min
same,Activity,Cholinesterase [45],9.07 µM
